Experimental data: patent US5945325A, “Thermally stable para-nitrobenzyl esterases” (priority 1998, dated 1999)
Read-outs that look alike come from different tables or passages of the source.

Experiments:
Assay in all cases: Kinetic assays of purified pNB esterase on ester substrates in DMF/PIPES
Type in all cases: biochemical
[1] = biological target: T1, Bacillus subtilis para-nitrobenzyl esterase variant 1-1H9 (incl. Tyr 370 Phe), SEQ. ID. NO. 4 (Bacillus subtilis, UniProt P37967, form not given/H322R/Y370F); settings: 0.1 M PIPES pH 7.0, 30° C.
T1 sequence (P37967 whole entry K23L/S59P/K95Q/N150D/S230A/G242S/K246R/S251A/A291S/H322R/V343A/Y370F/K390E/L463V, form open): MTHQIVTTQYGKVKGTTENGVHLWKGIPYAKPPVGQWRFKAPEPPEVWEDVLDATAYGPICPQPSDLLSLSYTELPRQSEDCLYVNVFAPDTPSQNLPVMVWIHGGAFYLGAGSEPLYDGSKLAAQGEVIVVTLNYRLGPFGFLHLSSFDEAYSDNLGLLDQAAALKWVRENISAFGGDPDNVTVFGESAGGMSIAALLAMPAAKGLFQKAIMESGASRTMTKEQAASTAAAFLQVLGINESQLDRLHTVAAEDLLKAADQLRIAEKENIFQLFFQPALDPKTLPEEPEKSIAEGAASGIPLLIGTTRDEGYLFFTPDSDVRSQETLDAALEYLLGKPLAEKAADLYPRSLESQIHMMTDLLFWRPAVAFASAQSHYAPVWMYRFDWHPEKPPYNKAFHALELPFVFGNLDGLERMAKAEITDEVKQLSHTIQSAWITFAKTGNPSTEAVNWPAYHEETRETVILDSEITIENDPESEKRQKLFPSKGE
Method: (§1) FIG. 8a is a plot of variant and wild type pNB esterase reaction kinetics on pNPA in aqueous buffer (0% dimethylformamide). Enzymes were added to a 30° C. reaction solution consisting of 0.1 M PIPES (pH 7.0) and varying concentrations of pNPA.
(§2) FIG. 8b is a plot of variant and wild type pNB esterase reaction kinetics on pNPA in 15% DMF. Enzymes were added to a 30° C. reaction solution consisting of 0.1 M PIPES (pH 7.0), 15% DMF, and varying concentrations of pNPA.
(§3) FIG. 8c is a plot of variant and wild type pNB esterase reaction kinetics on pNPA in 30% DMF. Enzyme were added to a 30° C. reaction solution consisting of 0.1 M PIPES (pH 7.0), 30% DMF, and varying concentrations of pNPA.
(§4) FIG. 9a is a plot of variant wild type pNB esterase kinetics on LCN-pNP in 1% DMF. Enzymes listed were added to a 30° C. reaction solution consisting of 0.1 M PIPES (pH 7.0), 1% DMF, and varying concentrations of LCN-pNP.
(§5) FIG. 9b is a plot of variant and wild type pNB esterase reaction kinetics on LCN-pNP in 15% DMF. Enzymes were added to a 30° C. reaction solution consisting of 0.1 M PIPES (pH 7.0), 15% DMF, and varying concentrations of LCN-pNP.
(§6) FIG. 9c is a plot of variant and wild type pNB esterase reaction kinetics on LCN-pNP in 30% DMF. Enzymes were added to a 30° C. reaction solution consisting of 0.1 M PIPES (pH 7.0), 30% DMF, and varying concentrations of LCN-pNP.
(§7) FIG. 10a is a plot of variant and wild type pNB esterase reaction kinetics on LCN-pNB in 1% DMF. Enzymes were added to a 30° C. reaction solution consisting of 0.1 M PIPES (pH 7.0), 1% DMF, and varying concentrations of LCN-pNB.
(§8) FIG. 10b is a plot of variant and wild type pNB esterase reaction kinetics on LCN-pNB in 15% DMF. Enzyme were added to a 30° C. reaction solution consisting of 0.1 M PIPES (pH 7.0), 15% DMF, and varying concentrations of LCN-pNB.
Bacteria expressing seven pNB esterases, O-WT (SEQ. ID. NO. 2), 1-1H9, 2-19E10, 3-10C4, 4-38B9, 4-43E7, and 4-54B9, were grown in on cultures, and the enzymes were purified. These purified enzymes were assayed for their ability to hydrolyze the different ester substrates in the presence of various concentrations of DMF.
Kinetic assays were performed on three substrates: pNPA, LCN-pNP, and p-nitrobenzyl loracarbef nucleus (LCN-pNB). For pNPA and LCN-pNP substrates, final concentrations varying from 0.0625 mM to 16 mM and 0, 15, and 30% DMF in 0.1 M PIPES (pH 7.0) were combined with equal volumes of enzyme samples. These samples were mixed simultaneously in a 96 well plate and monitored with the 96 well plate reader. The absorbance values were recorded, linearly regressed, and then used for calculating kinetic parameters. For the LCN-pNB substrate, final concentrations varying from 0.0156 mM to 8.0 mM and 0, 15 and 30% DMF in PIPES (pH 7.0) were combined with enzyme samples in a quartz cuvette and were measured in a spectrophotometer at 289 nm. All assays were measured in triplicate.

[2] = biological target: Bacillus subtilis para-nitrobenzyl esterase (pNB esterase), wild type 0-WT, SEQ. ID. NO. 2 (Bacillus subtilis, UniProt P37967); settings: 0.1 M PIPES pH 7.0, 30° C.
Sequence of Bacillus subtilis para-nitrobenzyl esterase (pNB esterase), wild type 0-WT, SEQ. ID. NO. 2 (P37967 whole entry K23L/S59P/K95Q/N150D/S230A/G242S/K246R/S251A/A291S/V343A/K390E/L463V): as the sequence (P37967 whole entry K23L/S59P/K95Q/N150D/S230A/G242S/K246R/S251A/A291S/H322R/V343A/Y370F/K390E/L463V, form open) above, with R322H, F370Y counted along it
Method: as §1, §2, §3, §4, §5, §6, §7, §8
(§9) Bacteria expressing seven pNB esterases, O-WT (SEQ. ID. NO. 2), 1-1H9, 2-19E10, 3-10C4, 4-38B9, 4-43E7, and 4-54B9, were grown in on cultures, and the enzymes were purified. These purified enzymes were assayed for their ability to hydrolyze the different ester substrates in the presence of various concentrations of DMF. FIGS. 8a, b and c show the specific reaction rates on pNPA as a function of pNPA substrate concentration for this series of evolved variants from the four generations of mutagenesis and screening. […] The wild type enzyme outperforms 1-1H9 in purely aqueous buffer (FIG. 8a). The actual screening, however, was performed in the presence of DMF, and in 15 and 30% DMF, 1-1H9 has higher specific activity towards pNPA than wild type (FIGS. 8b and 8c). Similar trends are seen for the remaining variants assayed on this substrate. […] In 30% DMF, wild type drops still further relative to the pNB esterase variants. Variants 4-38B9 and 4-43E7, presumably by virtue of having been screened in DMF for four rounds of mutagenesis, are the best performers in 30% DMF.
(§10) DMF dramatically increases KM while also decreasing kcat. For the LCN substrates, the mutations accumulated during directed evolution mitigate the increased KM. […] At substrate concentrations […], increased specific activity will result mainly from improvements in kcat. These improvements are the most useful for enzymes intended to be used for transformations in high substrate concentrations.
(§11) Kinetic assays were performed on three substrates: pNPA, LCN-pNP, and p-nitrobenzyl loracarbef nucleus (LCN-pNB). For pNPA and LCN-pNP substrates, final concentrations varying from 0.0625 mM to 16 mM and 0, 15, and 30% DMF in 0.1 M PIPES (pH 7.0) were combined with equal volumes of enzyme samples. These samples were mixed simultaneously in a 96 well plate and monitored with the 96 well plate reader. The absorbance values were recorded, linearly regressed, and then used for calculating kinetic parameters. […]

[3] = biological target: Bacillus subtilis para-nitrobenzyl esterase variant 2-19E10 (1-1H9 substitutions plus Met 358 Val), SEQ. ID. NO. 6 (Bacillus subtilis, UniProt P37967, form not given/H322R/M358V/Y370F); settings: 0.1 M PIPES pH 7.0, 30° C.
Sequence of Bacillus subtilis para-nitrobenzyl esterase variant 2-19E10 (1-1H9 substitutions plus Met 358 Val), SEQ. ID. NO. 6 (P37967 whole entry K23L/S59P/K95Q/N150D/S230A/G242S/K246R/S251A/A291S/H322R/V343A/M358V/Y370F/K390E/L463V, form open): as the sequence (P37967 whole entry K23L/S59P/K95Q/N150D/S230A/G242S/K246R/S251A/A291S/H322R/V343A/Y370F/K390E/L463V, form open) above, with M358V counted along it
Method: as §1, §2, §3, §4, §5, §6, §7, §8, §9, §10, §11

[4] = biological target: Bacillus subtilis para-nitrobenzyl esterase variant 3-10C4 (2-19E10 plus Leu 144 Met), SEQ. ID. NO. 8 (Bacillus subtilis, UniProt P37967, form not given/H322R/L144M/M358V/Y370F); settings: 0.1 M PIPES pH 7.0, 30° C.
Sequence of Bacillus subtilis para-nitrobenzyl esterase variant 3-10C4 (2-19E10 plus Leu 144 Met), SEQ. ID. NO. 8 (P37967 other isoform, or with tags, fused parts or gaps with the stated changes, form open): as the sequence (P37967 whole entry K23L/S59P/K95Q/N150D/S230A/G242S/K246R/S251A/A291S/H322R/V343A/Y370F/K390E/L463V, form open) above, with L144M, M358V counted along it
Method: as §1, §2, §3, §4, §5, §6, §7, §8, §9, §10, §11

[5] = biological target: Bacillus subtilis para-nitrobenzyl esterase variant 4-38B9 (3-10C4 plus Ile 60 Val), SEQ. ID. NO. 10 (Bacillus subtilis, UniProt P37967, form not given/H322R/I60V/L144M/M358V/Y370F); settings: 0.1 M PIPES pH 7.0, 30° C.
Sequence of Bacillus subtilis para-nitrobenzyl esterase variant 4-38B9 (3-10C4 plus Ile 60 Val), SEQ. ID. NO. 10 (P37967 other isoform, or with tags, fused parts or gaps with the stated changes, form open): as the sequence (P37967 whole entry K23L/S59P/K95Q/N150D/S230A/G242S/K246R/S251A/A291S/H322R/V343A/Y370F/K390E/L463V, form open) above, with I60V, L144M, M358V counted along it
Method: as §1, §2, §3, §4, §5, §6, §7, §8, §9, §10, §11

[6] = biological target: Bacillus subtilis para-nitrobenzyl esterase variant 4-43E7 (3-10C4 plus Leu 334 Val and one more substitution), SEQ. ID. NO. 12 (Bacillus subtilis, UniProt P37967, form not given/H322R/L144M/L334V/M358V/S94G/Y370F); settings: 0.1 M PIPES pH 7.0, 30° C.
Sequence of Bacillus subtilis para-nitrobenzyl esterase variant 4-43E7 (3-10C4 plus Leu 334 Val and one more substitution), SEQ. ID. NO. 12 (P37967 other isoform, or with tags, fused parts or gaps with the stated changes, form open): as the sequence (P37967 whole entry K23L/S59P/K95Q/N150D/S230A/G242S/K246R/S251A/A291S/H322R/V343A/Y370F/K390E/L463V, form open) above, with S94G, L144M, L334V, M358V counted along it
Method: as §1, §2, §3, §4, §5, §6, §7, §8, §9, §10, §11

[7] = biological target: Bacillus subtilis para-nitrobenzyl esterase variant 4-54B9 (3-10C4 plus Leu 334 Ser and one more substitution), SEQ. ID. NO. 14 (Bacillus subtilis, UniProt P37967, form not given/H322R/K267R/L144M/L334S/M358V/Y370F); settings: for kcat (p-nitrobenzyl loracarbef nucleus) / Km / kcat (p-nitrophenyl loracarbef nucleus): 0.1 M PIPES pH 7.0, 30° C.
Sequence of Bacillus subtilis para-nitrobenzyl esterase variant 4-54B9 (3-10C4 plus Leu 334 Ser and one more substitution), SEQ. ID. NO. 14 (P37967 other isoform, or with tags, fused parts or gaps with the stated changes, form open): as the sequence (P37967 whole entry K23L/S59P/K95Q/N150D/S230A/G242S/K246R/S251A/A291S/H322R/V343A/Y370F/K390E/L463V, form open) above, with L144M, K267R, L334S, M358V counted along it
Method: as §1, §2, §3, §4, §5, §6, §7, §8, §9, §10, §11

[8] = biological target: T1, Bacillus subtilis para-nitrobenzyl esterase variant 1-1H9 (incl. Tyr 370 Phe), SEQ. ID. NO. 4; settings: 0% DMF, 0.1 M PIPES pH 7.0, 30° C.
[9] = 15% DMF, read-out: Km (p-nitrobenzyl loracarbef nucleus)
[10] = 0% DMF, read-out: Km (p-nitrobenzyl loracarbef nucleus)
[11] = 15% DMF, on LCN-pNB, relative to wild type
[12] = 15% DMF, read-out: Km (p-nitrophenyl loracarbef nucleus)
[13] = 30% DMF, read-out: Km (p-nitrophenyl loracarbef nucleus)
[14] = 0% DMF, read-out: Km (p-nitrophenyl loracarbef nucleus)

## NC1C(=O)N2C(C(=O)OCc3ccc([N+](=O)[O-])cc3)=C(Cl)CCC12 (stereo not drawn) [p-nitrobenzyl loracarbef nucleus]
[1]; 15% DMF
  kcat (p-nitrobenzyl loracarbef nucleus): 0.69
[1]; [9]
  Km: 850 µM
[2]; 0% DMF
  kcat (p-nitrobenzyl loracarbef nucleus): 1.64
[2]; [10]
  Km: 40 µM
[2]; 15% DMF
  kcat (p-nitrobenzyl loracarbef nucleus): 0.54
[2]; [9]
  Km: 880 µM
[3]; 0% DMF
  kcat (p-nitrobenzyl loracarbef nucleus): 4.59
[3]; [10]
  Km: 40 µM
[3]; 15% DMF
  kcat (p-nitrobenzyl loracarbef nucleus): 1.81
[3]; [9]
  Km: 870 µM
[4]; 0% DMF
  kcat (p-nitrobenzyl loracarbef nucleus): 6.53
[4]; [10]
  Km: 70 µM
[4]; 15% DMF
  kcat (p-nitrobenzyl loracarbef nucleus): 1.62
[4]; [9]
  Km: 400 µM
[5]; 0% DMF
  kcat (p-nitrobenzyl loracarbef nucleus): 8.51
[5]; [10]
  Km: 40 µM
[5]; 15% DMF
  kcat (p-nitrobenzyl loracarbef nucleus): 1.89
[5]; [9]
  Km: 310 µM
[6]; 0% DMF
  kcat (p-nitrobenzyl loracarbef nucleus): 9.13
[6]; [10]
  Km: 30 µM
[6]; 15% DMF
  kcat (p-nitrobenzyl loracarbef nucleus): 3.02
[6]; [9]
  Km: 370 µM
[7]; 0% DMF
  kcat (p-nitrobenzyl loracarbef nucleus): 18.96
[7]; [10]
  Km: 50 µM
[7]; 15% DMF
  kcat (p-nitrobenzyl loracarbef nucleus): 6.84
[7]; [9]
  Km: 460 µM
[7]; [11]
  KM change from wild type to 4-54B9: decreases by less than a factor of two
  kcat increase from wild type to 4-54B9: more than 9 fold
[8]
  kcat (p-nitrobenzyl loracarbef nucleus): 1.94
[8]; read-out: Km (p-nitrobenzyl loracarbef nucleus)
  Km: 40 µM

## NC1C(=O)N2C(C(=O)Oc3ccc([N+](=O)[O-])cc3)=C(Cl)CCC12 (stereo not drawn) [p-nitrophenyl loracarbef nucleus]
[1]; 15% DMF
  kcat (p-nitrophenyl loracarbef nucleus): 0.07
[1]; [12]
  Km: 1840 µM
[1]; 30% DMF
  kcat (p-nitrophenyl loracarbef nucleus): 0.021
[1]; [13]
  Km: 6050 µM
[2]; 0% DMF
  kcat (p-nitrophenyl loracarbef nucleus): 0.14
[2]; [14]
  Km: 70 µM
[2]; 15% DMF
  kcat (p-nitrophenyl loracarbef nucleus): 0.10
[2]; [12]
  Km: 2360 µM
[2]; 30% DMF
  kcat (p-nitrophenyl loracarbef nucleus): 0.024
[2]; [13]
  Km: 7550 µM
[3]; 0% DMF
  kcat (p-nitrophenyl loracarbef nucleus): 0.25
[3]; [14]
  Km: 90 µM
[3]; 15% DMF
  kcat (p-nitrophenyl loracarbef nucleus): 0.12
[3]; [12]
  Km: 1500 µM
[3]; 30% DMF
  kcat (p-nitrophenyl loracarbef nucleus): 0.023
[3]; [13]
  Km: 4670 µM
[4]; 0% DMF
  kcat (p-nitrophenyl loracarbef nucleus): 0.35
[4]; [14]
  Km: 110 µM
[4]; 15% DMF
  kcat (p-nitrophenyl loracarbef nucleus): 0.21
[4]; [12]
  Km: 1770 µM
[4]; 30% DMF
  kcat (p-nitrophenyl loracarbef nucleus): 0.044
[4]; [13]
  Km: 5180 µM
[5]; 0% DMF
  kcat (p-nitrophenyl loracarbef nucleus): 0.39
[5]; [14]
  Km: 60 µM
[5]; 15% DMF
  kcat (p-nitrophenyl loracarbef nucleus): 0.25
[5]; [12]
  Km: 1410 µM
[5]; 30% DMF
  kcat (p-nitrophenyl loracarbef nucleus): 0.067
[5]; [13]
  Km: 5680 µM
[6]; 0% DMF
  kcat (p-nitrophenyl loracarbef nucleus): 0.67
[6]; [14]
  Km: 80 µM
[6]; 15% DMF
  kcat (p-nitrophenyl loracarbef nucleus): 0.40
[6]; [12]
  Km: 1270 µM
[6]; 30% DMF
  kcat (p-nitrophenyl loracarbef nucleus): 0.094
[6]; [13]
  Km: 5090 µM
[7]; 0% DMF
  kcat (p-nitrophenyl loracarbef nucleus): 1.44
[7]; [14]
  Km: 120 µM
[7]; 15% DMF
  kcat (p-nitrophenyl loracarbef nucleus): 0.93
[7]; [12]
  Km: 1270 µM
[7]; 30% DMF
  kcat (p-nitrophenyl loracarbef nucleus): 0.141
[7]; [13]
  Km: 2920 µM
[8]
  kcat (p-nitrophenyl loracarbef nucleus): 0.08
[8]; read-out: Km (p-nitrophenyl loracarbef nucleus)
  Km: 30 µM
